In ChEMBL document CHEMBL4184120, “Target ROS to induce apoptosis and cell cycle arrest by 5,7-dimethoxy-1,4-naphthoquinone derivative” (Bioorg Med Chem Lett, 2018):

Tests used:
[1] = test system: HL-60; test: Antiproliferative activity against human HL60 cells after 48 hrs by MTT assay; format: functional, cell-based; details: HL-60, 48 h
[2] = test system: HeLa; test: Antiproliferative activity against human HeLa cells after 48 hrs by MTT assay; format: functional, cell-based
[3] = test system: A549; test: Antiproliferative activity against human A549 cells after 48 hrs by MTT assay; format: functional, cell-based; details: A549, 48 h
[4] = test system: NCI-H460; test: Antiproliferative activity against human NCI-H460 cells after 48 by hrs MTT assay; format: functional, cell-based
[5] = test system: HepG2; test: Antiproliferative activity against human HepG2 cells after 48 hrs by MTT assay; format: functional, cell-based; details: HepG2, 48 h
[6] = Redox potential of the compound in pH 7.4 PBS buffer assessed as half wave potential at 0.4 mM by cyclic voltametry; format: physicochemical; details: pH 7.4, 400 µM
[7] = Redox potential of the compound in pH 7.4 PBS buffer assessed as oxidation potential at 0.4 mM by cyclic voltametry; format: physicochemical; details: pH 7.4, 400 µM
[8] = Redox potential of the compound in pH 7.4 PBS buffer assessed as reduction potential at 0.4 mM by cyclic voltametry; format: physicochemical; details: pH 7.4, 400 µM
[9] = test system: WI-38; test: Antiproliferative activity against human WI38 cells after 48 hrs by MTT assay; format: cell-based; details: WI-38, 48 h
[10] = test system: K562; test: Antiproliferative activity against human K562 cells after 48 hrs by MTT assay; format: functional, cell-based; details: K562, 48 h
[11] = Selectivity index, ratio of IC50 for human WI38 cells to IC50 for human HL60 cells; format: toxicity; details: WI38 cells and HL60 cells, read-out: Ratio IC50
[12] = test system: HL-60; test: Cell cycle arrest in human HL60 cells assessed as accumulation at G0/G1 phase at 5 mM after 48 hrs by propidium iodide staining based assay (reference value: 50.88%); format: functional
[13] = test system: HL-60; test: Cell cycle arrest in human HL60 cells assessed as accumulation at G2/M phase at 5 mM after 48 hrs by propidium iodide staining based assay (reference value: 2.68%); format: functional
[14] = test system: HL-60; test: Induction of apoptosis in human HL60 cells assessed as early apoptotic cells at 5 mM after 48 hrs by Annexin V-FITC/propidium iodide staining based flow cytometry (reference value: 3.13%); format: functional
[15] = test system: HL-60; test: Induction of apoptosis in human HL60 cells assessed as late apoptotic cells at 5 mM after 48 hrs by Annexin V-FITC/propidium iodide staining based flow cytometry (reference value: 1.23%); format: functional
[16] = test system: HL-60; test: Cell cycle arrest in human HL60 cells assessed as accumulation at S phase at 5 mM after 48 hrs by propidium iodide staining based assay (reference value: 46.44%); format: functional

Structure (SMILES)	IC50 [1] [µM]	IC50 [2] [µM]	IC50 [3] [µM]	IC50 [4] [µM]	IC50 [5] [µM]	Activity [6] [V]	Activity [7] [V]	Activity [8] [V]	IC50 [10] [µM]	IC50 [9] [µM]	selectivity ratio [11]	Activity [12] [%]	Activity [13] [%]	Activity [14] [%]	Activity [15] [%]	Activity [16] [%]
COc1cc(OC)c2c(c1)C(=O)C(O)=C(CCc1ccc(Br)cc1)C2=O	> 100	> 100	> 100	> 100	73.2	–	–	–	–	–	–	–	–	–	–	–
COc1cc(OC)c2c(c1)C(=O)C(O)=C(C)C2=O	> 100	90.2	> 100	> 100	> 100	–	–	–	–	–	–	–	–	–	–	–
CCCCCCC1=C(O)C(=O)c2cc(OC)cc(OC)c2C1=O	> 100	> 100	> 100	> 100	90.4	–	–	–	–	–	–	–	–	–	–	–
CCCCCCCCC1=C(O)C(=O)c2cc(OC)cc(OC)c2C1=O	> 100	> 100	> 100	> 100	> 100	–	–	–	–	–	–	–	–	–	–	–
CC(=O)N[C@@H](CS)C(=O)O [ACETYLCYSTEINE]	–	–	–	–	–	–	–	–	–	–	–	57.36	2.52	1.56	2.43	40.12

Second part, led by results:

IC50 [1] [µM]	IC50 [2] [µM]	IC50 [3] [µM]	IC50 [4] [µM]	IC50 [5] [µM]	Activity [6] [V]	Activity [7] [V]	Activity [8] [V]	IC50 [10] [µM]	Structure (SMILES)	IC50 [9] [µM]	selectivity ratio [11]	Activity [12] [%]	Activity [13] [%]	Activity [14] [%]	Activity [15] [%]	Activity [16] [%]
52	35	> 100	37.1	47.5	–	–	–	–	COC1=C(CCc2ccc(OC)cc2)C(=O)c2c(OC)cc(OC)cc2C1=O	–	–	–	–	–	–	–
61.4	52.4	> 100	75.2	55.9	-0.249	-0.187	-0.311	–	CCCCC1=C(OC)C(=O)c2cc(OC)cc(OC)c2C1=O	–	–	–	–	–	–	–
95.5	> 100	> 100	> 100	> 100	–	–	–	–	CCCCCCCCCCC1=C(O)C(=O)c2cc(OC)cc(OC)c2C1=O	–	–	–	–	–	–	–
9.2	21.2	63	61	41.4	–	–	–	29.9	COc1cc(OC)c2c(c1)C(=O)C(Cl)=C(CCC1CCCCC1)C2=O	34.2	3.7	–	–	–	–	–
15.3	29.3	83.1	> 100	37.1	–	–	–	19.2	COc1ccc(CCC2=C(Cl)C(=O)c3cc(OC)cc(OC)c3C2=O)cc1	26.8	1.8	–	–	–	–	–
55.9	70.2	> 100	43.1	37.4	–	–	–	–	COC1=C(CCC2CCCCC2)C(=O)c2c(OC)cc(OC)cc2C1=O	–	–	–	–	–	–	–
